Data taken from US4442118A, “Aldose reductase inhibition by 1-(4-chlorobenzoyl)-5-methoxy-2-methyl-1H-indole-3-acetic acid” (Ayerst, McKenna & Harrison, Inc., priority 1981, dated 1984).

Molecular target: lens aldose reductase (Bos taurus, UniProt P16116)
Assay: in vitro aldose reductase inhibition test (modified Hayman and Kinoshita procedure)
Format: biochemical, bovine
Procedure: In the present case the procedure of Hayman and Kinoshita is modified in that the final chromatography step is omitted in the preparation of the enzyme from bovine lens.
The following results were obtained when indomethacin was evaluated in the above in vitro test: […]

In the case of COc1ccc2c(c1)c(CC(=O)O)c(C)n2C(=O)c1ccc(Cl)cc1 [Indomethacin, 1-(4-Chlorobenzoyl)-5-methoxy-2-methyl-1H-indole-3-acetic acid], the “inhibitor of lens aldose reductase (in words)” value is reported as “potent inhibitor of lens aldose reductase”.
